Assays:
Assay type in all cases: cell-based
[1] = target: T1, alpha 2C adrenergic receptor (Homo sapiens, UniProt P18825); assay: RSAT (Receptor Selection and Amplification Technology) assay, alpha 2C; settings: for EC50: NIH-3T3 cells cotransfected with receptor and Gq/i5; for efficacy or intrinsic activity (value in parentheses) Alpha 2C: ratio of maximal effect to that of standard full agonist brimonidine
T1 construct: expressed in transfected cells; host or cells: NIH-3T3 cells, transient cotransfection by calcium phosphate
T1 sequence (P18825 1-462): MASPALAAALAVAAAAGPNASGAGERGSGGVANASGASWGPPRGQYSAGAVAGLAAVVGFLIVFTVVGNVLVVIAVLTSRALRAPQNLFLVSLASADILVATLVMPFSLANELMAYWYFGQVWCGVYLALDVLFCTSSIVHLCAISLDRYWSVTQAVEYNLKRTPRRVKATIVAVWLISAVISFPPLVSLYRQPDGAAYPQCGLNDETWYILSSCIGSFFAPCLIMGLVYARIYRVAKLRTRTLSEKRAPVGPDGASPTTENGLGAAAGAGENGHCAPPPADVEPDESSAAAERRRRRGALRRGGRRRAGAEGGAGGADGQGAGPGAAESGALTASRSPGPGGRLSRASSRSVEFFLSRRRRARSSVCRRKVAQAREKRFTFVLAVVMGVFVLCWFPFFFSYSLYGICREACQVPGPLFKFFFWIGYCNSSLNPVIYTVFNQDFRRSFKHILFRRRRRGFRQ
Procedure: (§1) Activity was measured using the RSAT (Receptor Selection and Amplification Technology) assay, developed by Receptor Technologies, Inc. of Winooski, Vt. (now Acadia Pharmaceuticals of San Diego, Calif.), adapted for use with recombinant alpha2 adrenergic receptors in collaboration with Allergan. The assay measures receptor-mediated loss of contact inhibition that results in selective proliferation of receptor-containing cells in a mixed population of confluent cells. The increase in cell number is assessed with an appropriate transfected marker gene such as β-galactosidase, the activity of which can be easily measured in a 96-well format. Receptors that activate the G protein, Gq, elicit this response. Alpha2 receptors, which normally couple to Gi, activate the RSAT response when coexpressed with a hybrid Gq protein that has a Gi receptor recognition domain, called Gq/i5.
(§2) The assay is conducted as follows. NIH-3T3 cells are plated at a density of 2×10^6 cells in 15 cm dishes and maintained in Dulbecco's modified Eagle's medium supplemented with 10% calf serum. One day later, cells are cotransfected by calcium phosphate precipitation with mammalian expression plasmids encoding p-SV-β-galactosidase (5-10 μg), receptor (1-2 μg) and G protein (1-2 μg). 40 μg salmon sperm DNA may also be included in the transfection mixture to increase transfection efficiency. Fresh media is added on the following day and 1-2 days later, cells are harvested and frozen in 50 assay aliquots. Transfectant cells are thawed and 100 μl added to 100 μl aliquots of various concentrations of drugs in triplicate in 96-well dishes. Incubations continue 72-96 hr at 37°. After washing with phosphate-buffered saline, β-galactosidase enzyme activity is determined by adding 200 μl of the chromogenic substrate (consisting of 3.5 mM o-nitrophenyl-β-D-galactopyranoside and 0.5% of the non-ionic surfactant nonidet P-40 in phosphate buffered saline), incubating overnight at 30° and measuring optical density at 420 nm. The absorbency is a measure of enzyme activity, which depends on cell number and reflects a receptor-mediated cell proliferation. The EC50 and maximal effect of each drug at each alpha2 receptor is determined. The efficacy or intrinsic activity is calculated as a ratio of the maximal effect of the drug to the maximal effect of a standard full agonist for each receptor subtype. Brimonidine, also called UK14304, is used as the standard agonist for the alpha2A, alpha2B and alpha2C receptors. The RSAT assay is also discussed in Messier et al. (1995) High throughput assays of cloned adrenergic, muscarinic, neurokinin and neurotrophin receptors in living mammalian cells, Pharmacol. Toxicol. 76:308-11; see also Conklin et al. (1993) Substitution of three amino acids switches receptor specificity of Gqα to that of Giα, Nature 363:274-6; Both of these papers are incorporated by reference herein.

[2] = target: T2, alpha 2A adrenergic receptor (Homo sapiens, UniProt P08913); assay: RSAT (Receptor Selection and Amplification Technology) assay, alpha 2A; settings: for EC50: NIH-3T3 cells cotransfected with receptor and Gq/i5; for efficacy or intrinsic activity (value in parentheses) Alpha 2A: ratio of maximal effect to that of standard full agonist brimonidine
T2 construct: expressed in transfected cells; host or cells: NIH-3T3 cells, transient cotransfection by calcium phosphate
T2 sequence (P08913 1-465): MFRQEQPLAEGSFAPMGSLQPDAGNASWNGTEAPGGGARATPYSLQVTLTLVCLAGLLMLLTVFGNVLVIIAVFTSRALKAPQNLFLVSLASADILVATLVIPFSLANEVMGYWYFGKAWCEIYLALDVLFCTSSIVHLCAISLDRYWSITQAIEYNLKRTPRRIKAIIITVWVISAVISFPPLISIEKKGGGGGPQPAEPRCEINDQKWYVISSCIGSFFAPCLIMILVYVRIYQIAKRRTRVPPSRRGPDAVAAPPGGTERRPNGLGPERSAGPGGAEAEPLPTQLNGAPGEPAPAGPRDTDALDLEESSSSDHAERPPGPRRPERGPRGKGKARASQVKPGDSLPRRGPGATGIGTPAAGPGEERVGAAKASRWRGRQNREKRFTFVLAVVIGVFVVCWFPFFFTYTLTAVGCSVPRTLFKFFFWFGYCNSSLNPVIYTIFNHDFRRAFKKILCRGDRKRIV
Procedure: as §1, §2

[3] = target: T3, alpha 2B adrenergic receptor (Homo sapiens, UniProt P18089); assay: RSAT (Receptor Selection and Amplification Technology) assay, alpha 2B; settings: for EC50: NIH-3T3 cells cotransfected with receptor and Gq/i5; for efficacy or intrinsic activity (value in parentheses) Alpha 2B: ratio of maximal effect to that of standard full agonist brimonidine
T3 construct: expressed in transfected cells; host or cells: NIH-3T3 cells, transient cotransfection by calcium phosphate
T3 sequence (P18089 1-450): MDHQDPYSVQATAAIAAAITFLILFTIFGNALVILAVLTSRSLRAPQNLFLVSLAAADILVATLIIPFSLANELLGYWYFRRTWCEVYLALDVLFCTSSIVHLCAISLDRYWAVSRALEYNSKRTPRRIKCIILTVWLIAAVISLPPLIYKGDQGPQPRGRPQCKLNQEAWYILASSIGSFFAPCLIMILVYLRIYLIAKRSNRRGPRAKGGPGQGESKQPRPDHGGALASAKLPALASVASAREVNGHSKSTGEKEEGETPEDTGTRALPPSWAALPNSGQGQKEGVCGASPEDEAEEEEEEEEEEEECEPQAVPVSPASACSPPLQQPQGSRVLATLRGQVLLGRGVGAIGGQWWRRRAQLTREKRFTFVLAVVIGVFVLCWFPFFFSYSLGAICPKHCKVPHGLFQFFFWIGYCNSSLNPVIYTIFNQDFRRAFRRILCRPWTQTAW
Procedure: as §1, §2

SMILES | EC50 [1] [nM] | EC50 [2] [nM] | EC50 [3] [nM] | efficacy or intrinsic activity (value in parentheses) Alpha 2B [3] | efficacy or intrinsic activity (value in parentheses) Alpha 2C [1] | efficacy or intrinsic activity (value in parentheses) Alpha 2A [2]
OCCNC(=S)NCc1cccc(C(F)(F)F)c1 | ≥ 210000 | ≥ 210000 | 495 | 0.73 |  | 
OCCNC(=S)NCc1cccc(OC(F)(F)F)c1 | ≥ 210000 | ≥ 210000 | 2390 | 0.55 |  | 
Cc1ccccc1CNC(=S)NCCO | ≥ 210000 | ≥ 210000 | 174 | 0.7 |  | 
Cc1cccc(CNC(=S)NCCO)c1 | 602 | ≥ 210000 | 913 | 0.9 | 0.3 | 
Cc1ccc(CNC(=S)NCCO)cc1 | 1810 | ≥ 210000 | 59 | 0.6 | 0.4 | 
COc1cccc(CNC(=S)NCCO)c1 | ≥ 210000 | ≥ 210000 | 898 | 0.40 |  | 
OCCNC(=S)NCc1ccc(F)c(Cl)c1 | ≥ 210000 | ≥ 210000 | 99 | 0.6 |  | 
CCOc1ccccc1CNC(=S)NCCO | 28 | ≥ 210000 | 42 | 0.7 | 0.4 | 
OCCNC(=S)NCc1ccc(F)cc1Cl | ≥ 210000 | ≥ 210000 | 579 | 0.75 |  | 
OCCNC(=S)NCc1c(F)cccc1Cl | ≥ 210000 | ≥ 210000 | 174 | 0.55 |  | 
OCCNC(=S)NCc1cccc(C(F)(F)F)c1F | 632 | ≥ 210000 | 37 | 0.7 | 0.3 | 
OCCNC(=S)NCc1ccccc1Br | 273 | ≥ 210000 | 10 | 0.8 | 0.4 | 
OCCNC(=S)NCc1cccc(Br)c1 | ≥ 210000 | 295 | 14 | 0.9 |  | 0.3
OCCNC(=S)NCc1cccc(Cl)c1 | ≥ 210000 | ≥ 210000 | 16 | 0.7 |  | 
OCCNC(=S)NCc1cccc(Cl)c1Cl | 54.5 | ≥ 210000 | 3 | 0.99 | 0.33 | 
OCCNC(=S)NCc1cccc(Br)c1F | 41 | 136 | 5.5 | 1.03 | 0.88 | 0.52

SMILES | EC50 [1] [nM] | EC50 [2] [nM] | EC50 [3] [nM] | efficacy or intrinsic activity (value in parentheses) Alpha 2B [3] | efficacy or intrinsic activity (value in parentheses) Alpha 2C [1] | efficacy or intrinsic activity (value in parentheses) Alpha 2A [2]
OCCNC(=S)NCc1c(F)ccc(Cl)c1F | > 2000 | ≥ 210000 | 98 | 0.83 |  | 
COc1ccc(Cl)cc1CNC(=S)NCCO | 175 | 380 | 19 | 1.09 | 0.53 | 0.33
COc1c(F)cccc1CNC(=S)NCCO | 843 | ≥ 210000 | 169 | 0.95 | 0.38 | 
OCCNC(=S)NCc1cc(Br)ccc1F | 459 | ≥ 210000 | 36 | 0.97 | 0.58 | 
OCCNC(=S)NCc1cc(F)ccc1Br | 137 | ≥ 210000 | 20 | 1.0 | 0.63 | 
COc1cccc(CNC(=S)NCCO)c1F | > 3000 | > 2000 | 429 | 1.04 |  | 
Cc1cc(Cl)cc(CNC(=S)NCCO)c1F | 181 | ≥ 210000 | 37.5 | 1.02 | 0.62 | 
OCCNC(=S)NCc1ccc(F)c(F)c1F | ≥ 210000 | ≥ 210000 | 482 | 0.76 |  | 
OCCNC(=S)NCc1c(F)cc(F)c(Cl)c1F | ≥ 210000 | ≥ 210000 | 281 | 0.58 |  | 
Cc1ccc(Br)c(CNC(=S)NCCO)c1F | > 3000 | ≥ 210000 | 115 | 0.8 |  | 
Cc1cc(Br)c(F)c(CNC(=S)NCCO)c1 | 819 | > 2000 | 22 | 0.73 | 0.56 | 
Cc1cc(Br)cc(CNC(=S)NCCO)c1F | 1490 | ≥ 210000 | 240 | 0.8 | 0.37 | 
OCCNC(=S)NCc1c(Br)ccc(I)c1F | ≥ 210000 | ≥ 210000 | 70 | 0.49 |  | 
OCCNC(=S)NCc1ccc(F)c(Br)c1F | 786 | ≥ 210000 | 138 | 1.01 | 0.66 | 
OCCNC(=S)NCc1c(Br)ccc(F)c1F | ≥ 210000 | ≥ 210000 | 48 | 0.60 |  | 

Reference: patent US6545182B2, “Methods and compositions for modulating alpha adrenergic receptor activity” (Allergan Sales, Inc., priority 2000, dated 2003)
